Experimental data reported in EP0401715B1, “Aminoketone compounds” (priority 1989, dated 1990).
Structures can show the parent of a compound that is named as a salt. Where two headings read alike, the source gives them in different places.

Biological target: T1, cholinesterase (Rattus norvegicus, UniProt P37136)
T1 construct: The S₁ fraction of a cerebral cortex homogenate from male Wistar rats was used as the cholinesterase source; from tissue; host or cells: S1 fraction of cerebral cortex homogenate, male Wistar rats
T1 sequence (P37136 32-614): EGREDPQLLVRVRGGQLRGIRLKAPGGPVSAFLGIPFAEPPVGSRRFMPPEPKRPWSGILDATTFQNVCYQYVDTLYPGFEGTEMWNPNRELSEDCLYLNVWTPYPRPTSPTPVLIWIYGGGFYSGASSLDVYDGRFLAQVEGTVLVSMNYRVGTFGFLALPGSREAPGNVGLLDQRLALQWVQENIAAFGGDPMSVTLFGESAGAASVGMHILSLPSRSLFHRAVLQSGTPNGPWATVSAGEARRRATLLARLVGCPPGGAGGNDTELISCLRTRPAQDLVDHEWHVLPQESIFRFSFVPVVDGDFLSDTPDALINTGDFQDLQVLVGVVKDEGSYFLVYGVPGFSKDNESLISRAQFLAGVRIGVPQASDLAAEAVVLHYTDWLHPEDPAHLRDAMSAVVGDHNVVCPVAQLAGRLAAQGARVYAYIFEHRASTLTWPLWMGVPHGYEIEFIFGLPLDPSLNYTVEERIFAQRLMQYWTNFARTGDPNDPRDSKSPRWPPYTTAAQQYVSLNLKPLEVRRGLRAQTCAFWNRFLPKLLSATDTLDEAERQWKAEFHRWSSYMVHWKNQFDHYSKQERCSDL
Assay: Anticholinesterase activity using (acetyl-[³H])-acetylcholine as substrate
Assay type: biochemical, male Wistar rats
Description: The anticholinesterase activity of the compound of the invention was evaluated using (acetyl-[³H])-acetylcholine. The S₁ fraction of a cerebral cortex homogenate from male Wistar rats was used as the cholinesterase source, (acetyl-[³H])-acetylcholine as the substrate and the test compound of the invention as the test substance. The incubation was carried out for 30 minutes and after the reaction was terminated, the system was shaken with a toluene scintillator to thereby transfer [³H]-acetic acid into the toluene layer. The radioactivity in the toluene layer was then measured with a liquid scintillation counter to estimate the anticholinesterase activity of the test compound.

SMILES | IC50 [nM] | IC50 (S₁ fraction of a cerebral cortex homogenate from male Wistar rats as cholinesterase source, incubation 30 minutes, read-out: Anticholinesterase activity, IC₅₀) [nM]
CCN(CCCCCC(=O)c1ccc(N2CCCC2)cc1)Cc1ccccc1 [Example 4-2, N-Ethyl-N-(phenylmethyl)-N-[6-(4-pyrrolidinophenyl)-6-oxohexyl]amine fumarate] | 310 | –
CCN(CCCCCC(=O)c1ccc(N2CCCC2)cc1)Cc1ccccc1OC [Example 4-3, N-Ethyl-N-[(2-methoxyphenyl)methyl]-N-[6-(4-pyrrolidinophenyl)-6-oxohexyl]amine fumarate] | – | 50
